Assay results from patent US8084430B2, “ENT-kaurene diterpene compound and its derivatives, their preparation and their use” (Zhengzhou University, priority 2006, dated 2011).
≈ marks a conversion by molar mass, not a printed value. Entries after “also recorded” stand apart in the source; their conditions may differ.

Assays:
[1] = test system: Human esophageal carcinoma Ec109 cells; assay: MTT activity against esophageal carcinoma Ec109 cells; type: cell-based
Experimental: Human esophageal carcinoma Ec109 cells were taken as target cells (Henan Institute of Medical Sciences), which were cultured in RPMI1640 medium (GIBCO) with 10% fetal bovine serum (TBD) at 37° C., in 5% CO2. The cells in logarithmic growth phase were inoculated in a 96-well plate, each well containing 6×10^3 cells. After 24 hours culture, the Jiyuan oridonin A (the compound obtained in example 1), derivative 1 and derivative 2 in different concentrations were added. After continuous 48 hours culture, the medical solution was removed carefully by absorption, followed by washing with RPMI 1640 medium without fetal bovine serum 3 times. 200 μL of medium with 0.2 mg/mL MTT were added in each well and incubated at 37° C. for 4 hours. The supernatant was removed and 200 μL of DMSO was added. After 10 min of shaking, the colorimetric method was used to determine the OD value of the control group and sample groups by an enzyme-labeling instrument with a detection wavelength of 570 nm, and a reference wavelength of 450 nm. The inhibition rate against cells of drugs in different concentrations was calculated and hemi-inhibitory concentration IC50 (μg/mL) was calculated based on cell inhibition curve.

[2] = test system: α-glucosidase; assay: Inhibitory activity against glycosidase (α-glucosidase); type: biochemical, baker's yeast
Experimental: (§1) After keeping at 37° C. for 40 min, the reaction substrate, p-nitrophenyl glucoside (2.5 mM, 20 μl), was added in each well, and kept at 37° C. for 5 min. The reaction was terminated by addition of buffer, 0.1 M Na2CO3 100 μl, and the OD value was determined at 405 nm by colorimetric method. 0.067M phosphate buffer containing 10% DMSO was used instead of the compounds in negative control group. Inhibition rate=(1−OD value of experimental group/OD value of negative control group)×100%, the IC50 value was calculated by drawing.

[3] = test system: β-glucosidase; assay: Inhibitory activity against glycosidase (β-glucosidase); type: biochemical, baker's yeast
Experimental: as §1

C=C1C(=O)C23C([C@@H](O)CC1[C@H]2O)[C@]12CCCC(C)(C)C1C[C@H]3OC2O (stereo partly drawn) [Jiyuan oridonin A]
cytotoxic activity against Ec109 cell (conclusion in words) ([1]; Ec109 cell): higher cytotoxic activity; also recorded: highest activity
IC50 ([1]; Homo sapiens, ECa-109, Ec109 cells, 48 hours culture, MTT): 4.52 µg/mL (≈ 13 µM)
Inhibitory activity against α-glucosidase ([2]; compound concentration of 1 mM): 26.3
inhibitory activity against α-glucosidase in vitro (conclusion in words) ([2]; in vitro): certain inhibitory activity
Inhibitory activity against β-glucosidase ([3]; compound concentration of 1 mM): 25.0
inhibitory activity against β-glucosidase in vitro (conclusion in words) ([3]; in vitro): certain inhibitory activity
